Measurements reported in US8536351B2, “2-aryl-5-heterocyclyl-cyclohexane-1,3,dione compounds and their use as herbicides” (Syngenta Crop Protection LLC, priority 2007, dated 2013).

Key:
Assay type in all cases: in vivo
Setaria faberi (SETFA) [1] = assay: Pre-emergence activity, glasshouse pot test (100=total damage to plant; 0=no damage to plant); settings: rate 500 g/ha, evaluated 19, 20 or 21 days after spraying
Procedure: (§1) Monocotyledonous and dicotyledonous test plants were sown in standard soil in pots. After cultivation for one day (pre-emergence) or after 10 days cultivation (post-emergence) under controlled conditions in a glasshouse, the plants were sprayed with an aqueous spray solution derived from the formulation of the technical active ingredient in 0.6 ml acetone and 45 ml formulation solution containing 10.6% Emulsogen EL (Registry number 61791-12-6), 42.2% N-methyl pyrrolidone, 42.2% dipropylene glycol monomethyl ether (Registry number 34590-94-8) and 0.2% X-77 (Registry number 11097-66-8). The test plants were then grown in a greenhouse under optimum conditions until, 14 or 15 days later for post-emergence and 19, 20 or 21 days for pre-emergence, the test was evaluated (100=total damage to plant; 0=no damage to plant). Alopecurus myosuroides (ALOMY), Avena fatua (AVEFA), Lolium perenne (LOLPE), Setaria faberi (SETFA), Digitaria sanguinalis (DIGSA), Echinochloa crus-galli (ECHCG) Pre-Emergence Activity

[2] = test system: Digitaria sanguinalis (DIGSA); assay: as above; settings: rate 500 g/ha, evaluated 19, 20 or 21 days after spraying
Procedure: as §1

[3] = test system: Echinochloa crus-galli (ECHCG); assay: as above; settings: rate 500 g/ha, evaluated 19, 20 or 21 days after spraying
Procedure: as §1

Lolium perenne (LOLPE) [4] = assay: as above; settings: rate 500 g/ha, evaluated 19, 20 or 21 days after spraying
Procedure: as §1

[5] = test system: Alopecurus myosuroides (ALOMY); assay: as above; settings: rate 500 g/ha, evaluated 19, 20 or 21 days after spraying
Procedure: as §1

Avena fatua (AVEFA) [6] = assay: as above; settings: rate 500 g/ha, evaluated 19, 20 or 21 days after spraying
Procedure: as §1

Setaria faberi (SETFA) [7] = assay: Post-emergence activity, glasshouse pot test (100=total damage to plant; 0=no damage to plant); settings: evaluated 14 or 15 days after spraying; for pest or weed control at 500 g/ha: rate 500 g/ha; for pest or weed control at 125 g/ha: rate 125 g/ha
Procedure: as §1, with “Post-Emergence” for “Pre-Emergence”

[8] = test system: Digitaria sanguinalis (DIGSA); assay: as above; settings: evaluated 14 or 15 days after spraying; for pest or weed control at 500 g/ha: rate 500 g/ha; for pest or weed control at 125 g/ha: rate 125 g/ha
Procedure: as §1, with “Post-Emergence” for “Pre-Emergence”

[9] = test system: Echinochloa crus-galli (ECHCG); assay: as above; settings: evaluated 14 or 15 days after spraying; for pest or weed control at 500 g/ha: rate 500 g/ha; for pest or weed control at 125 g/ha: rate 125 g/ha
Procedure: as §1, with “Post-Emergence” for “Pre-Emergence”

Lolium perenne (LOLPE) [10] = assay: as above; settings: 336 h, evaluated 14 or 15 days after spraying; for pest or weed control at 500 g/ha: rate 500 g/ha; for pest or weed control at 125 g/ha: rate 125 g/ha
Procedure: as §1, with “Post-Emergence” for “Pre-Emergence”

[11] = test system: Alopecurus myosuroides (ALOMY); assay: as above; settings: 336 h, evaluated 14 or 15 days after spraying; for pest or weed control at 500 g/ha: rate 500 g/ha; for pest or weed control at 125 g/ha: rate 125 g/ha
Procedure: as §1, with “Post-Emergence” for “Pre-Emergence”

Avena fatua (AVEFA) [12] = assay: as above; settings: 336 h, evaluated 14 or 15 days after spraying; for pest or weed control at 500 g/ha: rate 500 g/ha; for pest or weed control at 125 g/ha: rate 125 g/ha
Procedure: as §1, with “Post-Emergence” for “Pre-Emergence”

Row | SMILES | pest or weed control at 500 g/ha (Setaria faberi (SETFA) [1]) [%] | pest or weed control at 500 g/ha [2] [%] | pest or weed control at 500 g/ha [3] [%] | pest or weed control at 500 g/ha (Lolium perenne (LOLPE) [4]) [%] | pest or weed control at 500 g/ha [5] [%] | pest or weed control at 500 g/ha (Avena fatua (AVEFA) [6]) [%] | pest or weed control at 500 g/ha (Setaria faberi (SETFA) [7]) [%] | pest or weed control at 500 g/ha [8] [%] | pest or weed control at 500 g/ha [9] [%] | pest or weed control at 500 g/ha (Lolium perenne (LOLPE) [10]) [%] | pest or weed control at 500 g/ha [11] [%] | pest or weed control at 500 g/ha (Avena fatua (AVEFA) [12]) [%] | pest or weed control at 125 g/ha (Setaria faberi (SETFA) [7]) [%] | pest or weed control at 125 g/ha [8] [%] | pest or weed control at 125 g/ha [9] [%] | pest or weed control at 125 g/ha (Lolium perenne (LOLPE) [10]) [%] | pest or weed control at 125 g/ha [11] [%] | pest or weed control at 125 g/ha (Avena fatua (AVEFA) [12]) [%]
1 | CC(=O)OC1=C(c2c(C)cc(C)cc2C)C(=O)CC(C2CCOC2)C1 (stereo not drawn) [Compound P1, 3-oxo-5-(tetrahydrofuran-3-yl)-2-(2,4,6-trimethylphenyl)cyclohex-1-enyl acetate] | 0 | 60 | 30 | 70 | 60 | 20 | 70 | 80 | 70 | 80 | 80 | 20 | – | – | – | – | – | –
2 | CCc1cc(C)cc(CC)c1C1=C(OC(C)=O)CC(C2CCCS(=O)(=O)C2)CC1=O (stereo not drawn) [Compound P2] | 100 | 100 | 100 | 80 | 90 | 100 | – | – | – | – | – | – | 20 | 90 | 20 | 0 | 10 | 20
3 | CCc1cc(C)cc(CC)c1C1=C(OC(=O)C(C)(C)C)CC(C2CCS(=O)(=O)CC2)CC1=O (stereo not drawn) [Compound P3] | 90 | 100 | 100 | 90 | 90 | 80 | – | – | – | – | – | – | 60 | 70 | 60 | 0 | 70 | 30
4 | CCc1cc(C)cc(CC)c1C1=C(O)CC(C2CCOCC2)CC1=O (stereo not drawn) [Compound T2, 2-(2,6-diethyl-4-methylphenyl)-5-(tetrahydropyran-4-yl)cyclohexane-1,3-dione] | 100 | 100 | 90 | 100 | 100 | 100 | 90 | 100 | 100 | 90 | 90 | 100 | – | – | – | – | – | –
5 | Cc1cc(C)c(C2=C(O)CC(C3CCOCC3)CC2=O)c(C)c1 (stereo not drawn) [Compound T3] | 60 | 100 | 100 | 100 | 90 | 90 | 90 | 80 | 100 | 100 | 100 | 90 | – | – | – | – | – | –
6 | CCc1cc(C)cc(CC)c1C1=C(O)CC(C2CCOC2)CC1=O (stereo not drawn) [Compound T4, 2-(2,6-diethyl-4-methylphenyl)-5-(tetrahydrofuran-3-yl)cyclohexane-1,3-dione] | 100 | 90 | 100 | 100 | 100 | 70 | 100 | 100 | 80 | 100 | 100 | 100 | – | – | – | – | – | –
7 | CCc1ccc(-c2ccc(Cl)cc2)cc1C1=C(O)CC(C2CCOC2)CC1=O (stereo not drawn) [Compound T6] | 100 | 100 | 100 | 100 | 90 | 20 | 100 | 100 | 100 | 100 | 100 | 90 | – | – | – | – | – | –
8 | Cc1ccc(-c2ccc(Cl)cc2)cc1C1=C(O)CC(C2CCOC2)CC1=O (stereo not drawn) [Compound T7] | 100 | 100 | 100 | 100 | 70 | 30 | 100 | 100 | 100 | 80 | 90 | 90 | – | – | – | – | – | –
9 | CCc1ccc(-c2ccc(Cl)cc2)cc1C1=C(O)CC(C2CCOCC2)CC1=O (stereo not drawn) [Compound T8] | 100 | 100 | 100 | 80 | 100 | 60 | 90 | 90 | 90 | 100 | 80 | 70 | – | – | – | – | – | –
10 | Cc1ccc(-c2ccc(Cl)cc2)cc1C1=C(O)CC(C2CCOCC2)CC1=O (stereo not drawn) [Compound T9] | 100 | 80 | 100 | 100 | 60 | 60 | 80 | 90 | 100 | 100 | 80 | 70 | – | – | – | – | – | –
11 | Cc1cc(C)c(C2=C(O)CC(C3CCOC3)CC2=O)c(C)c1 (stereo not drawn) [Compound T10] | 70 | 80 | 80 | – | 90 | 50 | 80 | 90 | 90 | 80 | 80 | 60 | – | – | – | – | – | –
12 | CCc1cc(C)cc(C)c1C1=C(O)CC(C2CCOC2)CC1=O (stereo not drawn) [Compound T11] | 100 | 100 | 100 | 80 | 80 | 70 | 100 | 100 | 100 | 90 | 90 | 90 | – | – | – | – | – | –
13 | CCc1cc(C)cc(C)c1C1=C(O)CC(C2CCOCC2)CC1=O (stereo not drawn) [Compound T12] | 100 | 100 | 100 | 100 | 90 | 90 | 100 | 100 | 100 | 90 | 90 | 90 | – | – | – | – | – | –
14 | CCc1cc(C)cc(CC)c1C1=C(O)CC(C2CC[S+]([O-])CC2)CC1=O (stereo not drawn) [Compound T22] | – | – | 70 | 90 | 90 | 90 | 100 | 100 | 80 | 80 | 90 | 90 | – | – | – | – | – | –
